Results taken from patent US10597388B2, “Pyridazinone herbicides” (FMC CORPORATION, priority 2014, dated 2020).

Experiments:
Assay in all cases: Test E greenhouse herbicide test, pre- and postemergence
Type in all cases: in vivo
[1] = test system: pigweed, palmer (palmer pigweed, Amaranthus palmeri)
In short: (§1)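 Visual rating vs untreated controls, 0 = no effect, 100 = complete control, after 14–21 d greenhouse. Pre: seeded silt loam treated with surfactant-containing solvent formulation. Post: 1–4-leaf plants (2–18 cm) in peat/vermiculite medium.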

[2] = test system: johnsongrass (Sorghum halepense); conditions: Preemergence
In short: as §1

corn (Zea mays) = test system: corn (Zea mays)
In short: as §1

[3] = test system: panicum, fall (fall panicum, Panicum dichotomiflorum)
In short: as §1

[4] = test system: nightshade (eastern black nightshade, Solanum ptycanthum); conditions: Preemergence
In short: as §1

[5] = test system: ragweed (common ragweed, Ambrosia elatior)
In short: as §1

soybean (Glycine max) = test system: soybean (Glycine max)
In short: as §1

[6] = test system: arrowleaf sida (Sida rhombifolia)
In short: as §1

[7] = test system: beggarticks (hairy beggarticks, Bidens pilosa)
In short: as §1

[8] = test system: crabgrass, Brazilian (Brazilian crabgrass, Digitaria horizontalis)
In short: as §1

[9] = test system: sandbur (southem sandbur, Cenchrus echinatus)
In short: as §1

[10] = test system: velvetleaf (Abutilon theophrasti); conditions: Preemergence
In short: as §1

[11] = test system: lambsquarters (Chenopodium album); conditions: Preemergence
In short: as §1

kochia (Kochia scoparia) = test system: kochia (Kochia scoparia)
In short: as §1

[12] = test system: surinam grass (Brachiaria decumbens); conditions: Preemergence
In short: as §1

[13] = test system: foxtail, giant (giant foxtail, Setaria faberii); conditions: Preemergence
In short: as §1

[14] = test system: goosegrass (Eleusine indica); conditions: Preemergence
In short: as §1

[15] = 62 g ai/ha, Postemergence, scale 0 to 100 (0 no effect, 100 complete control)
[16] = 125 g ai/ha, Postemergence, scale 0 to 100 (0 no effect, 100 complete control)
[17] = 125 g ai/ha, Preemergence, scale 0 to 100 (0 no effect, 100 complete control)
[18] = 250 g ai/ha, Postemergence, scale 0 to 100 (0 no effect, 100 complete control)
[19] = Postemergence, 31 g ai/ha, visual, scale 0 no effect to 100 complete control
[20] = Preemergence, 31 g ai/ha, scale 0 to 100, 0 no effect, 100 complete control
[21] = Preemergence, 250 g ai/ha, visual, scale 0 no effect to 100 complete control
[22] = 31 g ai/ha, scale 0 to 100, 0 no effect, 100 complete control
[23] = 250 g ai/ha, visual, scale 0 no effect to 100 complete control
[24] = 62 g ai/ha, Preemergence, scale 0 to 100 (0 no effect, 100 complete control)
[25] = 125 g ai/ha, scale 0 to 100 (0 no effect, 100 complete control)
[26] = 62 g ai/ha, scale 0 to 100 (0 no effect, 100 complete control)

CC(=O)Oc1c(C)nn(C)c(=O)c1-c1c(C)cc(C)c2ccccc12 [Compound 153]
95: Plant response rating, Pigweed, Palmer [1, 21] | Plant response rating, Nightshade [4, 25] | Plant response rating, Ragweed [5, 17] | Plant response rating, Foxtail, Giant [13, 26] | Plant response rating, Foxtail, Giant [13, 25]
55: Plant response rating, Kochia (kochia (Kochia scoparia); [16])
85: Plant response rating, Panicum, Fall [3, 19] | Plant response rating, Sandbur [9, 17] | Plant response rating, Velvetleaf [10, 22]
90: Plant response rating, Panicum, Fall [3, 15] | Plant response rating, Panicum, Fall [3, 16] | Plant response rating, Panicum, Fall [3, 18] | Plant response rating, Ragweed [5, 18] | Plant response rating, Crabgrass, Brazil [8, 20] | Plant response rating, Sandbur [9, 21] | Plant response rating, Velvetleaf [10, 25] | Plant response rating, Kochia (kochia (Kochia scoparia); [21]) | Plant response rating, Surinam Grass [12, 25]
70: Plant response rating, Nightshade [4, 22] | Plant response rating, Ragweed [5, 15] | Plant response rating, Arrowleaf Sida [6, 24] | Plant response rating, Crabgrass, Brazil [8, 24] | Plant response rating, Sandbur [9, 18] | Plant response rating, Kochia (kochia (Kochia scoparia); [18])
40: Plant response rating, Pigweed, Palmer [1, 18] | Plant response rating, Arrowleaf Sida [6, 16] | Plant response rating, Arrowleaf Sida [6, 18] | Plant response rating, Arrowleaf Sida [6, 19] | Plant response rating, Crabgrass, Brazil [8, 16] | Plant response rating, Kochia (kochia (Kochia scoparia); [20]) | Plant response rating, Goosegrass [14, 26] | Plant response rating, Goosegrass [14, 22]
50: Plant response rating, Pigweed, Palmer [1, 20] | Plant response rating, Arrowleaf Sida [6, 15] | Plant response rating, Arrowleaf Sida [6, 20] | Plant response rating, Crabgrass, Brazil [8, 18] | Plant response rating, Sandbur [9, 19] | Plant response rating, Kochia (kochia (Kochia scoparia); [15]) | Plant response rating, Kochia (kochia (Kochia scoparia); [17]) | Plant response rating, Kochia (kochia (Kochia scoparia); [19]) | Plant response rating, Surinam Grass [12, 22]
0: Plant response rating, Johnsongrass [2, 22] | Plant response rating, Corn (corn (Zea mays); [15]) | Plant response rating, Corn (corn (Zea mays); [24]) | Plant response rating, Corn (corn (Zea mays); [16]) | Plant response rating, Corn (corn (Zea mays); [18]) | Plant response rating, Corn (corn (Zea mays); [19]) | Plant response rating, Corn (corn (Zea mays); [20]) | Plant response rating, Soybean (soybean (Glycine max); [19])
20: Plant response rating, Pigweed, Palmer [1, 15] | Plant response rating, Pigweed, Palmer [1, 19] | Plant response rating, Corn (corn (Zea mays); [21]) | Plant response rating, Crabgrass, Brazil [8, 19]
10: Plant response rating, Corn (corn (Zea mays); [17]) | Plant response rating, Soybean (soybean (Glycine max); [16])
25: Plant response rating, Soybean (soybean (Glycine max); [18])
30: Plant response rating, Pigweed, Palmer [1, 16] | Plant response rating, Soybean (soybean (Glycine max); [17]) | Plant response rating, Soybean (soybean (Glycine max); [20]) | Plant response rating, Crabgrass, Brazil [8, 15]
100: Plant response rating, Panicum, Fall [3, 17] | Plant response rating, Panicum, Fall [3, 20] | Plant response rating, Panicum, Fall [3, 21] | Plant response rating, Nightshade [4, 23] | Plant response rating, Ragweed [5, 20] | Plant response rating, Ragweed [5, 21] | Plant response rating, Beggarticks [7, 15] | Plant response rating, Beggarticks [7, 24] | Plant response rating, Beggarticks [7, 16] | Plant response rating, Beggarticks [7, 17] | Plant response rating, Beggarticks [7, 18] | Plant response rating, Beggarticks [7, 19] | Plant response rating, Beggarticks [7, 20] | Plant response rating, Beggarticks [7, 21] | Plant response rating, Crabgrass, Brazil [8, 17] | Plant response rating, Crabgrass, Brazil [8, 21] | Plant response rating, Velvetleaf [10, 23] | Plant response rating, Lambsquarters [11, 25] | Plant response rating, Lambsquarters [11, 22] | Plant response rating, Lambsquarters [11, 23] | Plant response rating, Surinam Grass [12, 23] | Plant response rating, Foxtail, Giant [13, 23]
75: Plant response rating, Ragweed [5, 19] | Plant response rating, Arrowleaf Sida [6, 21] | Plant response rating, Foxtail, Giant [13, 22] | Plant response rating, Goosegrass [14, 23]
60: Plant response rating, Pigweed, Palmer [1, 17] | Plant response rating, Johnsongrass [2, 23] | Plant response rating, Arrowleaf Sida [6, 17] | Plant response rating, Sandbur [9, 16] | Plant response rating, Goosegrass [14, 25]
80: Plant response rating, Ragweed [5, 16] | Plant response rating, Sandbur [9, 20]
